# Experimental data reported in PubChem BioAssay (NCI).
# “And” between values parts separate entries of the source, which are not always exact repeats. Equal values may be shown once.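 Cells were grown in 96-well plates and exposed to each compound for 48 hours at five concentrations; endpoints were interpolated linearly between bracketing concentrations, or set to the highest concentration if not reached. The concentration for 50% growth inhibition is given as GI50. The concentration for full growth arrest is given as TGI.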
# How the values were obtained:
# Experiment in all cases: DTP human tumour cell line panel, 48 h
# A549 NSCLC = test system: A549 NSCLC
# BT-549 breast = test system: BT-549 breast
# COLO 205 colon = test system: COLO 205 colon
# DLD-1 colon = test system: DLD-1 colon
# DMS 273 small cell lung = test system: DMS 273 small cell lung
# DU-145 prostate = test system: DU-145 prostate
# HOP-18 NSCLC = test system: HOP-18 NSCLC
# LXFL 529 NSCLC = test system: LXFL 529 NSCLC
# XF 498 CNS = test system: XF 498 CNS
# NCI/ADR-RES ovarian = test system: NCI/ADR-RES ovarian
SMILES,TGI (A549 NSCLC) [µM],TGI (BT-549 breast) [µM],TGI (COLO 205 colon) [µM],TGI (DLD-1 colon) [µM],TGI (DMS 273 small cell lung) [µM],TGI (DU-145 prostate) [µM],TGI (HOP-18 NSCLC) [µM],TGI (LXFL 529 NSCLC) [µM],TGI (XF 498 CNS) [µM],GI50 (A549 NSCLC),GI50 (DU-145 prostate) [µM],TGI (NCI/ADR-RES ovarian) [µM],GI50 (HOP-18 NSCLC)
O=C1C=CC2(C=C1)C[C@H](NC(=O)OCc1ccccc1)C(=O)O2,> 78.5,32.7,18.3,14.1,35,85.3,31.5,24.7,32,–,–,–,–
O=C1C2C3C=CC(C2C(=O)N1CN1CCSCC1)C1C2C(=O)N(CN4CCSCC4)C(=O)C2C31 (stereo not drawn),> 100,–,97.8,> 79.3,> 61.4,–,91.5,> 100,> 100,77.1 µM,78.4,–,–
Nc1ccc(Sc2c3ccccc3nc3ccccc23)cc1,> 100,27.4,37.6,19.7,28.8,28.7,41.7,21,28,–,–,36,–
CC1CC[P+](c2ccccc2)(c2ccccc2)CC1,> 100,–,> 100,> 100,> 100,–,> 100,> 100,77.4,–,–,–,–
O=c1cc(-c2ccccc2)[nH]c2cc(Cl)ccc12,> 100,–,2.82,23.8,10.5,–,> 100,53.2,1.71,–,–,–,–
CCN=C(C#N)NCC,> 100,–,> 100,> 100,> 100,–,> 100,> 100,> 100,–,–,–,–
CCCCCCCCCCCCCB(O)O,> 100,–,> 100,> 100,> 100,–,> 100,> 100,> 100,> 100 µM and 48.5 µM,–,–,> 100 µM and 25.9 µM
